Laboratory results from patent US10682415B2, “Thermogel formulation for combination drug delivery” (Wisconsin Alumni Research Foundation, priority 2013, dated 2020).

Experiments:
[1] = neutral pH; cited from earlier work
[2] = tested on: ES-2-luc human ovarian cancer cells; test: In vitro cytotoxicity in ES-2-luc cells
[3] = Initial gel formation experiments (stable thermogel with PLGA-PEG-PLGA); assay type: physicochemical; conditions: for Thermogel Formation: drug(s) with PLGA-PEG-PLGA polymer, about 1 mg drug per 10 mg polymer
[4] = Drug content incorporated in thermogel quantified by RP-HPLC; assay type: physicochemical
Protocol: (§1) The drug delivery system containing a combination of three drugs can be prepared as follows. Paclitaxel (PTX; 6 mg), 17-AAG (6 mg), and rapamycin (RAPA; 3 mg) were combined with 1.5 mL of tent-Butanol (TBA) to obtain a clear solution at 60° C. Separately, cold water was added to PLGA1.5k-PEG1k-PLGA1.5k and the mixture was incubated at refrigeration temperature (4° C.) for 2-3 days to obtain 100 mg/mL of polymer solution. The polymer solution (1.5 mL) was rapidly added to 1.5 mL of drug/TBA mixture (50% TBA). The mixture was rapidly vortexed and warmed to 60° C. for less than one minute to prevent phase separation. The mixture was rapidly frozen with ethanol/dry ice (−72° C.) for 1 hour and lyophilized for 24 hours (below 0.8 bar at −45° C.).
(§2) Samples were diluted with cold water and kept at 4° C. Liquefied samples were passed through about […] (e.g., clear solution (x)) to about 0.2 μm (e.g., clear solution (y)) of a regenerated cellulose membrane filter (RC filter) at 4° C. and concentrations were quantified using RP-HPLC.

[5] = Drug release kinetics of thermogel at 37° C. (cassette MWCO 20,000, first-order model); assay type: physicochemical
Protocol: The drug release kinetics of the composition at 37° C. was evaluated. Data is shown below in Table 1-3. […] Each cassette (MWCO 20,000) contained 0.3 mL of Triogel (n=3). […] The profile of the release kinetics was fit into a first-order model (Prism ver 5.0), as illustrated in FIG. 2.
The release kinetics of 1-drug thermogels (37° C.) were analyzed. Separately, compositions having 6 mg, 6 mg, and 3 mg of PTX, 17-AAG, and RAPA mixed with 60, 60, and 30 mg of polymers, respectively, in 1.0 mL of water were evaluated. Each cassette (MWCO 20,000) contained 0.3 mL of Thermogel (n=3). Profile of release kinetics was fit into a first-order model (Prism ver 5.0).

[6] = Rehydration time, gelation time and physical observation of lyophilized sample and gel; assay type: physicochemical
Protocol: as §1, §2
In general, an elegant lyophilized cake can improve rehydration time and solubility of the lyophilized cake in aqueous solution.

Which water solubility [1] does the source give for `C=CCNC1=C2C[C@@H](C)C[C@H](OC)[C@H](O)[C@@H](C)/C=C(\C)[C@H](OC(N)=O)[C@@H](OC)/C=C\C=C(/C)C(=O)NC(=CC1=O)C2=O` [17-AAG, 17-allylamino-17-demethoxygeldanamycin] here?
Its water solubility is “about 0.1 mg/mL”.

And the “cytotoxic effect (in words)” value [2]?
The value was “did not induce significant cytotoxic effect”.

And the IC50 ([2]; drug(s) dissolved in a mixture of DMSO and medium)?
The IC50 was 933.6 ± 1.8 nM.

For `CC1=C2C[C@H]3[C@@H](CC=C4C[C@@H](O)CC[C@@]43C)[C@@H]2CC[C@]12O[C@@H]1C[C@H](C)CN[C@H]1[C@H]2C` [Cyclopamine (CYP), cyclopamine], which “Thermogel Formation” value [3] is on record?
Its value is “No”.

What about the “stable thermogel formation / gel integrity” value ([3]; warming the 4° C. solution with PLGA-PEG-PLGA to room temperature / 37° C.) of the same molecule?
Its value is “a stable thermogel was unable to be prepared”.

Which results are given for `CC(=O)O[C@H]1C(=O)[C@@]2(C)[C@H]([C@H](OC(=O)c3ccccc3)[C@]3(O)C[C@H](OC(=O)[C@H](O)[C@@H](NC(=O)c4ccccc4)c4ccccc4)C(C)=C1C3(C)C)[C@]1(OC(C)=O)CO[C@@H]1C[C@@H]2O` [PTX, paclitaxel]?
Thermogel Formation [3]: Yes; PTX gel incorporation by RP-HPLC analysis ([4]; 6 mg PTX in 150 mg of polymer and 50 wt. % TBA): 5.33 mg; Final level of drug, PTX ([4]; single, two and three drug compositions, initial level 6.0 mg/mL): 5.8 ± 0.5 mg/mL; k: release kinetic constant ([5]; release from Triogel (6 mg/6 mg/3 mg PTX/17-AAG/RAPA, 150 mg polymer, 1 mL water), n = 3): 0.0577 ± 0.0230 h⁻¹; k (release kinetic constant) ([5]; release from two drug thermogel PTX/17-AAG (6 mg/6 mg in 120 mg polymer, 1 mL water)): 0.2037 ± 0.0575 h⁻¹; k (release kinetic constant) ([5]; release from two drug thermogel PTX/RAPA (6 mg/3 mg in 90 mg polymer, 1 mL water)): 0.1035 ± 0.0354 h⁻¹; k (release kinetic constant) ([5]; single drug compositions, n = 3): 0.0682 ± 0.0112 h⁻¹; time to form a gel at room temperature ([6]; room temperature): less than two minutes; time gel-like form is retained ([6]; room temperature, 6 mg PTX in 150 mg of polymer): more than two weeks; Physical obs. of gel ([6]; single, two and three drug compositions): Good

Which “cytotoxic effect (in words)” value [2] does the source give for `CO[C@H]1C[C@@H]2CC[C@@H](C)[C@@](O)(O2)C(=O)C(=O)N2CCCC[C@H]2C(=O)O[C@H]([C@H](C)C[C@@H]2CC[C@@H](O)[C@H](OC)C2)CC(=O)[C@H](C)/C=C(\C)[C@@H](O)[C@@H](OC)C(=O)[C@H](C)C[C@H](C)/C=C/C=C/C=C/1C` [RAPA, rapamycin] here?
The value was “did not induce significant cytotoxic effect”.
